Values quoted from earlier work in patent US20150231092A1, “NOVEL EFFERVESCENT SACHET FORMULATIONS OF DAPOXETINE AND A PDE5 INHIBITOR” (Sanovell IIac Sanayi Ve Ticaret Anonim Sirketi, priority 2012, published 2015).

Columns and labels:
[1] = following oral administration
[2] = following oral administration; remark: listed apart in the source

solubility in water | Compound | binding to plasma proteins [1] | onset of action [2] [min] | onset of action takes (second sentence; apparently action time) [2]
 | CN(C)[C@@H](CCOc1cccc2ccccc12)c1ccccc1 [dapoxetine] | almost completely binding to plasma proteins |  | 
poorly soluble in water | CN1CC(=O)N2[C@H](c3ccc4c(c3)OCO4)c3[nH]c4ccccc4c3C[C@@H]2C1=O [tadalafil, (6R-trans)-6-(1,3-benzodioxol-5-yl)-2,3,6,7,12,12a-hexahydro-2-methyl-pyrazino[1′,2′:1,6]pyrido[3,4-b]indole-1,4-dione] |  | 15 | up to 36 hours
